Key:
[1] = Pharmacokinetic test in rats; format: in vivo, rat; conditions: male SD rats
Protocol: • 1.1 Experimental animals: male SD rats, about 220 g, 6-8 weeks old, 6 rats/compound, purchased from Chengdu Ddossy Experimental Animals Co., Ltd. • 1.2 Experimental design: on the day of the test, 6 SD rats were randomly grouped according to their body weight; the animals were fasted with water available for 12 to 14 h one day before the administration, and were fed 4 h after the administration.
Before and after the administration, 0.15 mL of blood was taken from the orbit of the animals under isoflurane anesthesia and placed in an EDTAK2 centrifuge tube. The blood was centrifuged at 5000 rpm and 4° C. for 10 min to collect plasma. The blood collection time points for the intravenous administration group and intragastric administration group were: 0, 5 min, 15 min, 30 min, 1 h, 2 h, 4 h, 6 h, 8 h, and 24 h. Before analysis and detection, all samples were stored at −80° C. The samples were analyzed quantitatively by LC-MS/MS.

PARP7 = PARP7 (Homo sapiens (Human), UniProt Q7Z3E1); experiment: PARP7 enzyme activity test; format: biochemical
Protocol: (§2) PARP2, PARP5A, PARP5B, PARP6, PARP7, PARP14 and PARP15 chemical fluorescence detection kits were purchased from BPS Bioscience. The histone solution in the kit was diluted 5× with 1×PBS, and 25 μL of the diluted histone solution was added to a microwell plate and incubated overnight at 4° C. After the incubation, the plate was washed three times with PBST (0.05% Tween-20). 100 μL of the blocking solution was added to the microwell plate and incubated at 25° C. for 90 minutes. After the incubation, the plate was washed three times with PBST. […] 5 μL of the diluted PARP enzyme was added to the microwell plate, and the reaction system was incubated at 25° C. for 60 minutes.
(§3) After the incubation, the plate was washed three times with PBST. Streptavidin-HRP was diluted 50× with a blocking solution, and 25 μL of the diluent was added to the microwell plate and incubated at 25° C. for 30 minutes. After the incubation, the plate was washed three times with PBST. ELISA ECL substrate A and substrate B were mixed at a ratio of 1:1 (v/v), 25 μL of the mixture was added to the microwell plate, and the chemiluminescence value was read.
(§4) Curve fitting was performed by four parameters (log(inhibitor) vs. response—Variable slope) using GraphPad Prism software, and the IC50 value was calculated.

[2] = test system: Human breast cancer MDA-MB-231 cells; experiment: MDA-MB-231 cell proliferation inhibition test (CellTiter-Glo, 7 days); format: cell-based; conditions: MDA-MB-231, 168 h, 7 days incubation
Protocol: (§1) The cells in the exponential growth phase were collected, and the cell suspension was adjusted to 1500 cells/135 μL with the culture medium. 135 μL of the cell suspension was added to each well of a 96-well cell culture plate and incubated overnight. On day 2, compounds at different concentrations were added, and the plate was placed in the incubator and incubated for 7 days. After the incubation was completed, according to operation instructions for a CellTiter-Glo kit (Promega, Cat #G7573), 75 μL of CTG solution, which was already pre-melted and equilibrated to room temperature, was added to each well, and the mixture was uniformly mixed for 2 min using a microplate shaker. The plate was placed at room temperature for 10 min, and then […] signal values were measured using an Envision 2104 plate reader (PerkinElmer).

PARP15 = PARP15 (Homo sapiens (Human), UniProt Q460N3); experiment: PARP15 enzyme activity test; format: biochemical
Protocol: as §2, §3, §4

[3] = test system: MDA-MB-436 subcutaneous transplanted tumor; experiment: Mouse MDA-MB-436 subcutaneous in vivo transplanted tumor model
Protocol: Human breast cancer MDA-MB-436 cells were placed in Leibovitz's L-15 medium (supplemented with 10 μg/mL insulin, 16 μg/mL glutathione, 10% fetal bovine serum and 1% double antibody) and cultured at 37° C. Conventional digestion treatment with trypsin was carried out twice a week for passage. When the cell saturation was 80%-90%, and the number reached the requirement, the cells were collected, counted, and inoculated. BALB/c nude mice (from Beijing Vital River Laboratory Animal Technology Co., Ltd.) were subcutaneously inoculated with 0.2 mL (10×10^6) of MDA-MB-436 cells (plus matrigel, with the volume ratio of 1:1) on the right back. When the average tumor volume reached about 180 mm^3, grouping and administration were performed (marked as Day 0). […] The administration frequency was once a day, the administration cycle was 29 days, and the drug withdrawal observation period was set to 14 days. After grouping, the tumor diameter was measured twice a week with a vernier caliper. The formula for calculating the tumor volume was: V=0.5×a×b^2, where a and b represented the long and short diameters of the tumor, respectively.

PARP5B = PARP5B (Homo sapiens (Human), UniProt Q9H2K2); experiment: PARP5B enzyme activity test; format: biochemical
Protocol: as §2, §3, §4

PARP5A = PARP5A (Homo sapiens (Human), UniProt O95271); experiment: PARP5A enzyme activity test; format: biochemical
Protocol: as §2, §3, §4

[4] = test system: breast tumor cells MDA-MB-436; experiment: MDA-MB-436 cell activity test (CellTiter-Glo, 7 days); format: cell-based; conditions: Homo sapiens, MDA-MB-436, 168 h, 7 days incubation; for inhibition at 10 µM: read-out: MDA-MB-436 Max inh. % 10 μM; for IC50: read-out: MDA-MB-436 cell inhibitory activity IC50
Protocol: as §1, with “Breast tumor cells MDA-MB-436 were purchased from ATCC, the culture medium was Leibovitz's L-15+10% FBS, and the cells were cultured in a CO2-free incubator at 37° C. On day 1, the cells” for “The cells”, “to 4000” for “to 1500”, “(Promega, G7573),” for “(Promega, Cat #G7573),”, “an Envision2104” for “an Envision 2104”, “(PerkinElmer). The inhibition rate was calculated using formula (1), where RLUcompound was the readout of the drug treated group, RLUcontrol was the average value of the vehicle control group, and RLUblank was the average value of the cell-free well. The IC50 value was calculated using GraphPad Prism software.” for “(PerkinElmer).”

PARP-1 enzyme = PARP-1 enzyme (Homo sapiens (Human), UniProt P09874); experiment: PARP1 enzyme activity test (BPS Bioscience chemiluminescence kit); format: biochemical
From the text: Inhibition %=(1−(RLUsample−RLUmin)/(RLUmax−RLUmin))×100% (formula 1)

[5] = Sprague-Dawley (SD), rat, iv, i.v. 2.5 mg/kg, plasma

Chain of PARP-1 enzyme (P09874 whole entry): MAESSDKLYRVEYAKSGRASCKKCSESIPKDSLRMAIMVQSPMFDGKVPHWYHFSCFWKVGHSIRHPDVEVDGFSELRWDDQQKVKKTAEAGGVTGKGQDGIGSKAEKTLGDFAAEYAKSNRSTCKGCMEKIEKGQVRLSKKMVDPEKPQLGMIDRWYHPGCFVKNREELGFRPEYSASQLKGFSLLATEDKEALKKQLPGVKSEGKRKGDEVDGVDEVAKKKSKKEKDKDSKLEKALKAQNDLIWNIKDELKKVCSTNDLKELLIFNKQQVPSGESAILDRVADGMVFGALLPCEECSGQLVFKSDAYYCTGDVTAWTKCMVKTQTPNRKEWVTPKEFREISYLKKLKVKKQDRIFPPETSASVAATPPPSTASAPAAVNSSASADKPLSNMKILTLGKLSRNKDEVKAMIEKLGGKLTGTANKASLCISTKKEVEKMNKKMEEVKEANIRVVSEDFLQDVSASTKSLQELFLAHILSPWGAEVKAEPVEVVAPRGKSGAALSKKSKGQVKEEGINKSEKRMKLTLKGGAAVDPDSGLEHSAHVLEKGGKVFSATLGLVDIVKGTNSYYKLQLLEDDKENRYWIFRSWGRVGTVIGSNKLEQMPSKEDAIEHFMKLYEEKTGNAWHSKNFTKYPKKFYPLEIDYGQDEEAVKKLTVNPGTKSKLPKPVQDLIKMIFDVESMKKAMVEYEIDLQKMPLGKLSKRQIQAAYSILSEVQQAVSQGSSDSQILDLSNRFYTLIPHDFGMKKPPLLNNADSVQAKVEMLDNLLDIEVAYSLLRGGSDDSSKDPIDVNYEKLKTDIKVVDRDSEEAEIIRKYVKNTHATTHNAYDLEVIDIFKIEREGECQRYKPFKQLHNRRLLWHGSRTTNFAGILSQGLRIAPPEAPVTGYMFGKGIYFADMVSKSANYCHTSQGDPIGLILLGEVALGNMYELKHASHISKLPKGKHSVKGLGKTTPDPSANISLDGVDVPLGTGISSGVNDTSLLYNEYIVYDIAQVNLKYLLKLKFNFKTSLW
Chain of PARP7 (Q7Z3E1 whole entry): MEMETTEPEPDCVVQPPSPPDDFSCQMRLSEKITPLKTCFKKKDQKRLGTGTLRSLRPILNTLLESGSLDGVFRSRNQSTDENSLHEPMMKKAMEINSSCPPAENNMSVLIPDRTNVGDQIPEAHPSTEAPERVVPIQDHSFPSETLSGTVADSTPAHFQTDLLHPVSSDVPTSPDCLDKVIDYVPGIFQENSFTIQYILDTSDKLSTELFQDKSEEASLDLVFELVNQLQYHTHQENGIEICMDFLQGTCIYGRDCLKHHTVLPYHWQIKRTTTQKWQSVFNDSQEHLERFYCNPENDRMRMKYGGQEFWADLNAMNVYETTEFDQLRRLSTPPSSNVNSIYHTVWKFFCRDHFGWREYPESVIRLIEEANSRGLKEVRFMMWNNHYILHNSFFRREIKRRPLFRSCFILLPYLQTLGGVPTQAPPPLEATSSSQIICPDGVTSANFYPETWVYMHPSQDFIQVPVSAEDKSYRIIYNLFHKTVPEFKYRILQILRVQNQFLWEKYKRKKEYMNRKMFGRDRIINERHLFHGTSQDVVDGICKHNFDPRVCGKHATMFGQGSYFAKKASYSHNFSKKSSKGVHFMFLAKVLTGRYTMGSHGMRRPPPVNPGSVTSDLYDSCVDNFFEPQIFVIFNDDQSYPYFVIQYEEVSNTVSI
Chain of PARP5B (Q9H2K2 667-1166 limits assumed): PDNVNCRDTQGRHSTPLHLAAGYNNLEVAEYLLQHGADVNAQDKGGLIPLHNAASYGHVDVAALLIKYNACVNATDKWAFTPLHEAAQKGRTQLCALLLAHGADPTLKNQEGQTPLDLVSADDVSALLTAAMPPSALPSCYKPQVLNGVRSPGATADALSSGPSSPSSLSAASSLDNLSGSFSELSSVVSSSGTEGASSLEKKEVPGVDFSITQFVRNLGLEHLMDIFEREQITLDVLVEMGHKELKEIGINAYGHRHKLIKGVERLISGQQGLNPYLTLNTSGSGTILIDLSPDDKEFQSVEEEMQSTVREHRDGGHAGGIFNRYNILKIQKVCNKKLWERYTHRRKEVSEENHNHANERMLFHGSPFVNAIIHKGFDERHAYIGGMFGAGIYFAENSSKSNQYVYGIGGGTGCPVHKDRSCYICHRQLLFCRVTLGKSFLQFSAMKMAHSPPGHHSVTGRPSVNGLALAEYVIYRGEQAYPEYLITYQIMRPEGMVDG
Chain of PARP15 (Q460N3 whole entry): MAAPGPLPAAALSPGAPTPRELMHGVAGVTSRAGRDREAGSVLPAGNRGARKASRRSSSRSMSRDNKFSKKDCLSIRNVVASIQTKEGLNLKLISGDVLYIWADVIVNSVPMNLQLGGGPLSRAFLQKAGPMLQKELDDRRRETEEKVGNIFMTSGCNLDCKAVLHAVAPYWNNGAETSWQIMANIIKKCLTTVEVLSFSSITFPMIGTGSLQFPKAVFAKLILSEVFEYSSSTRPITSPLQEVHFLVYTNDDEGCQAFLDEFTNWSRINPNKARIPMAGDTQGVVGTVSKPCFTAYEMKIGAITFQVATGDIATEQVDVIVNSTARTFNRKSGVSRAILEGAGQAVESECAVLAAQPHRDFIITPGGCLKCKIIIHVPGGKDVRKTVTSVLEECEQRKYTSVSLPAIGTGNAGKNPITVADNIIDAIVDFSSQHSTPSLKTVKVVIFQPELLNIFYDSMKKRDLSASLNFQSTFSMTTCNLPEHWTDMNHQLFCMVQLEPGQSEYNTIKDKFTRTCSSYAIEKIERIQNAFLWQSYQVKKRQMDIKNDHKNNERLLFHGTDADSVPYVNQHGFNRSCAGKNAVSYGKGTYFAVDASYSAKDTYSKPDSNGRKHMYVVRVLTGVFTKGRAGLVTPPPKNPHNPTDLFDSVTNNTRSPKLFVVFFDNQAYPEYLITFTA
Chain of PARP5A (O95271 1001-1327 limits assumed): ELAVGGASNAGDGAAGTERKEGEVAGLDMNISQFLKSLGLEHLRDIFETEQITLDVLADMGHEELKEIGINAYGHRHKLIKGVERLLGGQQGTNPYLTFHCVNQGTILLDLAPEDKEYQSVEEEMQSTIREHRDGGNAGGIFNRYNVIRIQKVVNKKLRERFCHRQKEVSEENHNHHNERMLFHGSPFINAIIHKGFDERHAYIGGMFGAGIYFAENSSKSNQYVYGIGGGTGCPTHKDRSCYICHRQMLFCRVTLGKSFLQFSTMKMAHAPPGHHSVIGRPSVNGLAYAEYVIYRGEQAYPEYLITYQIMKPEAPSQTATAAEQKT

Compound CCc1cc2ncc(CN3CCN(c4ccc(C(=O)NC5CC5)nc4)CC3)cc2[nH]c1=O [Compound 4, N-cyclopropyl-5-(4-((7-ethyl-6-oxo-5,6-dihydro-1,5-naphthyridin-3-yl)methyl)piperazin-1-yl)picolinamide] has an AUC(0-t) [1, 5] of 46.6 ± 4.75 µg·h/mL, a clearance [1, 5] of 0.896 ± 0.097 mL/min/kg and a Vd ([1]; Sprague-Dawley (SD), rat, iv, i.v. 2.5 mg/kg, plasma, read-out: Vdss) of 0.236 ± 0.022 L/kg. It also gave an AUC(0-t) ([1]; Sprague-Dawley (SD), rat, po, i.g. 10 mg/kg, plasma) of 184 ± 72.3 µg·h/mL, an F ([1]; i.g. 10 mg/kg) of 98.8 ± 39% and an IC50 (PARP7) of 5360 nM. For the same compound, the inhibition at 10 µM ([2]; 10 μM, read-out: MDA-MB-231 Max inh. % 10 μM) was 66.8%, the IC50 ([2]; BRCA WT cells, read-out: MDA-MB-231 cell inhibitory activity IC50) was 15900 nM and the IC50 (PARP15) was 4300 nM. The “tumor growth after the drug withdrawal” value ([3]; 14 days drug withdrawal observation period) was “did not grow again”, the “body weight of the animals” value ([3]; BALB/c nude mice, once a day, Day 0-10: 1 mg/kg, Day 11-28: 0.1 mg/kg) was “no significant decrease in the body weight” and the TGI ([3]; BALB/c nude mice, once a day, Day 0-10: 1 mg/kg, Day 11-28: 0.1 mg/kg, after 28 days of administration) was 119%. It also gave an IC50 (PARP5B) of 576 nM, an IC50 (PARP5A) of 6080 nM and an inhibition at 10 µM [4] of 89.4%. The IC50 [4] was 2 nM.
For CCc1cc2ncc(CN3CCN(c4ccc(NC(=O)C5CC5)nc4)CC3)cc2[nH]c1=O [Compound 9, N-(5-(4-((7-ethyl-6-oxo-5,6-dihydro-1,5-naphthyridin-3-yl)methyl)piperazin-1-yl)pyridin-2-yl)cyclopropanecarboxamide], the inhibition at 10 µM [4] was 86.2%, the IC50 [4] was 6 nM and the IC50 (PARP-1 enzyme) was 0.73 nM.
Work on CCc1cc2ncc(CN3CCN(c4ccc(C(=O)NC5CCC5)nc4)CC3)cc2[nH]c1=O [Compound 10, N-cyclobutyl-5-(4-((7-ethyl-6-oxo-5,6-dihydro-1,5-naphthyridin-3-yl)methyl)piperazin-1-yl)picolinamide] yielded an inhibition at 10 µM [4] of 94.2%, an IC50 [4] of 17 nM and an IC50 (PARP-1 enzyme) of 0.56 nM.
For CCc1cc2ncc(CN3CCN(c4ccc(C(=O)N[C@@H]5C[C@@H]5F)nc4)CC3)cc2[nH]c1=O [Compound 11, 5-(4-((7-ethyl-6-oxo-5,6-dihydro-1,5-naphthyridin-3-yl)methyl)piperazin-1-yl)-N-((1R,2S)-2-fluorocyclopropyl)picolinamide], the inhibition at 10 µM [4] was 85.2%, the IC50 [4] was 6 nM and the IC50 (PARP-1 enzyme) was 0.54 nM.
CCc1cc2ncc(CN3CCN(c4ccc(C(=O)NC5CNC5)nc4)CC3)cc2[nH]c1=O [Compound 22, N-(azetidin-3-yl)-5-(4-((7-ethyl-6-oxo-5,6-dihydro-1,5-naphthyridin-3-yl)methyl)piperazin-1-yl)picolinamide] gave an inhibition at 10 µM [4] of 89.4%, an IC50 [4] of 12 nM and an IC50 (PARP-1 enzyme) of 0.51 nM.
CCc1cc2ncc(CN3CCN(c4ccc(C(=O)Nc5cnn(C)c5)nc4)CC3)cc2[nH]c1=O [Compound 23, 5-(4-((7-ethyl-6-oxo-5,6-dihydro-1,5-naphthyridin-3-yl)methyl)piperazin-1-yl)-N-(1-methyl-1H-pyrazol-4-yl)picolinamide] gave an inhibition at 10 µM [4] of 84.2%, an IC50 [4] of 1.4 nM and an IC50 (PARP-1 enzyme) of 0.67 nM.
CCc1cc2ncc(CN3CCN(c4ccc(C(=O)NCCOC)nc4)CC3)cc2[nH]c1=O [Compound 24, 5-(4-((7-ethyl-6-oxo-5,6-dihydro-1,5-naphthyridin-3-yl)methyl)piperazin-1-yl)-N-(2-methoxyethyl)picolinamide] gave an inhibition at 10 µM [4] of 82.3%, an IC50 [4] of 9 nM and an IC50 (PARP-1 enzyme) of 0.73 nM.
Compound CCc1cc2ncc(CN3CCN(c4ccc(C(=O)NC5CC(F)(F)C5)nc4)CC3)cc2[nH]c1=O [Compound 25, N-(3,3-difluorocyclobutyl)-5-(4-((7-ethyl-6-oxo-5,6-dihydro-1,5-naphthyridin-3-yl)methyl)piperazin-1-yl)picolinamide] has an inhibition at 10 µM [4] of 99%, an IC50 [4] of 16 nM and an IC50 (PARP-1 enzyme) of 0.88 nM.
Compound CCc1cc2ncc(CN3CCN(c4ccc(NC(=O)C5CC(F)(F)C5)nc4)CC3)cc2[nH]c1=O [Compound 26, N-(5-(4-((7-ethyl-6-oxo-5,6-dihydro-1,5-naphthyridin-3-yl)methyl)piperazin-1-yl)pyridin-2-yl)-3,3-difluorocyclobutane-1-carboxamide] has an inhibition at 10 µM [4] of 86.3%, an IC50 [4] of 18 nM and an IC50 (PARP-1 enzyme) of 0.48 nM.
With CCc1cc2ncc(CN3CCN(c4ccc(NC(=O)c5cnn(C)c5)nc4)CC3)cc2[nH]c1=O [Compound 33, N-(5-(4-((7-ethyl-6-oxo-5,6-dihydro-1,5-naphthyridin-3-yl)methyl)piperazin-1-yl)pyridin-2-yl)-1-methyl-1H-pyrazole-4-carboxamide] the inhibition at 10 µM [4] was 90%, the IC50 [4] was 3.1 nM and the IC50 (PARP-1 enzyme) was 0.74 nM.
With CCc1cc2ncc(CN3CCN(c4ccc(NC(=O)OC5CC5)nc4)CC3)cc2[nH]c1=O [Compound 37, Cyclopropyl(5-(4-((7-ethyl-6-oxo-5,6-dihydro-1,5-naphthyridin-3-yl)methyl)piperazin-1-yl)pyridin-2-yl)carbamate] the inhibition at 10 µM [4] was 93.7%, the IC50 [4] was 18.9 nM and the IC50 (PARP-1 enzyme) was 0.96 nM.
CCc1cc2ncc(CN3CCN(c4ccc(C(=O)NC5CC6(CCC6)C5)nc4)CC3)cc2[nH]c1=O [Compound 38, 5-(4-((7-ethyl-6-oxo-5,6-dihydro-1,5-naphthyridin-3-yl)methyl)piperazin-1-yl)-N-(spiro[3.3]heptan-2-yl)picolinamide] gave an inhibition at 10 µM [4] of 98.8%, an IC50 [4] of 17.6 nM and an IC50 (PARP-1 enzyme) of 0.7 nM.
In the case of CCc1cc2ncc(CN3CCN(c4ccc(C(=O)NC56CC(C5)C6)nc4)CC3)cc2[nH]c1=O [Compound 39, N-(bicyclo[1.1.1]pentan-1-yl)-5-(4-((7-ethyl-6-oxo-5,6-dihydro-1,5-naphthyridin-3-yl)methyl)piperazin-1-yl)picolinamide], the inhibition at 10 µM [4] is reported as 99.1%, the IC50 [4] is reported as 1.2 nM and the IC50 (PARP-1 enzyme) is reported as 0.77 nM.
CCc1cc2ncc(CN3CCN(c4ccc(C(=O)NCC5CC5)nc4)CC3)cc2[nH]c1=O [Compound 40, N-(cyclopropylmethyl)-5-(4-((7-ethyl-6-oxo-5,6-dihydro-1,5-naphthyridin-3-yl)methyl)piperazin-1-yl)picolinamide] gave an inhibition at 10 µM [4] of 99.3%, an IC50 [4] of 5.6 nM and an IC50 (PARP-1 enzyme) of 0.61 nM.
CCc1cc2ncc(CN3CCN(c4ccc(C(=O)N[C@H]5C[C@H]5F)nc4)CC3)cc2[nH]c1=O [Compound 41, 5-(4-((7-ethyl-6-oxo-5,6-dihydro-1,5-naphthyridin-3-yl)methyl)piperazin-1-yl)-N-((1S,2R)-2-fluorocyclopropyl)picolinamide] showed an inhibition at 10 µM [4] of 92.1%, an IC50 [4] of 2.3 nM and an IC50 (PARP-1 enzyme) of 0.84 nM.
With CCc1cc2ncc(CN3CCN(c4ccc(-c5nnc(C)[nH]5)nc4)CC3)cc2[nH]c1=O [Compound 42, 3-ethyl-7-((4-(6-(5-methyl-4H-1,2,4-triazol-3-yl)pyridin-3-yl)piperazin-1-yl)methyl)-1,5-naphthyridin-2 (1H)-one] the inhibition at 10 µM [4] was 84.1%, the IC50 [4] was 24.1 nM and the IC50 (PARP-1 enzyme) was 0.67 nM.

Source: patent US20240400586A1, “HETEROARYL DERIVATIVE PARP INHIBITOR AND USE THEREOF” (HAISCO PHARMACEUTICAL GROUP CO., LTD., priority 2021, published 2024)
